Reference: PMC12111156, “Nitazoxanide Analogs: Synthesis, In Vitro Giardicidal Activity, and Effects on Giardia lamblia Metabolic Gene Expression” (International Journal of Molecular Sciences, 2025)

Columns and labels:
[1] = Cytotoxicity, XTT viability assay, Caco-2; conditions: human
Method: (§1) The cytotoxicity assay was performed to evaluate the effect of the selected compounds on human cells. Colon cells were used because they are cell lines like those present in the microenvironment where G. lamblia colonizes, which is the small intestine of the host. The assay was performed using the human cell lines Caco-2 (ATCC HTB-37) and HT-29 (ATCC […]). Cell viability was determined using the Cell Proliferation Kit II (XTT, St. Louis, MO, EE. UU.). A cell suspension of 2 × 10^3 cells/mL was prepared in Dulbecco’s modified Eagle’s medium (DMEM) supplemented with 10% inactivated fetal bovine serum and an antibiotic (1% penicillin/streptomycin, 5000 U/mL, in a volume of 100 µL). The suspension was added to a 96-well plate. The plates were incubated for 24 h at 37 °C in a 5% CO2 atmosphere. […] The cells were incubated for 48 h at 37 °C in a 5% CO2 atmosphere. Cell viability was determined using the following steps. The medium in each well was replaced with 100 µL of fresh medium, and 50 µL of XTT labeling mix was added per well. The reaction was incubated for four hours at 37 °C and 5% CO2. After incubation, the absorbance of the samples on the plate was measured at 450 nm. Each compound was assayed in triplicate in three independent experiments. CC50 values (μM) were determined using the nonlinear regression function of GraphPad Prism version 8 for Windows.

Caco-2 cells = experiment: Cytotoxicity, XTT viability assay, Caco-2; conditions: read-out: CC50 Caco-2; 48 h, XTT
Method: as §1

[2] = test system: G6PD::6PGL enzyme of G. lamblia; conditions: cited from earlier work
Caco-2 and HT-29 cells = experiment: Cytotoxicity, XTT viability assay, stated for both cell lines; type: cell-based, human; conditions: 125 µM, 48 h
Method: The suspension was added to a 96-well plate. […] Cell viability was determined using the following steps.

[3] = test system: G. lamblia strain ATCC 30957; experiment: Viability of Giardia lamblia trophozoite culture (trypan blue count); type: cell-based
Method: Viability analysis was performed on G. lamblia strain ATCC 30957 grown in TYI-S-33 medium supplemented with 10% fetal bovine serum (FBS) and an antibiotic. Pre-culture was performed in 16 × 150 mm borosilicate tubes with a medium inoculated with 2 × 10^5 trophozoites and incubated at 37 °C for 48 h. For the recovery of the trophozoites, the vial was incubated in ice for 8 min and centrifuged for 6 min at 2000 rpm. The concentrated trophozoites were suspended in 1 mL of phosphate-buffered saline (PBS), and the number of trophozoites was counted by placing a 1:1 volume ratio of cell culture and trypan blue dye (4 g/L); then, a homogeneous drop of the mixture was taken and placed in the Neubauer chamber, and the total cells were counted.
The curves were plotted for concentrations of 0–50 µM of each compound. The assay was performed by placing 1.5 × 10^5 cells in 1.5 mL microcentrifuge tubes with a supplemented medium and different concentrations of each compound (0–50 µM). The negative control was performed under the same conditions without a compound, and the drugs NTZ and MTZ were used as positive controls. The samples were incubated for 48 h at 37 °C. At the end of the incubation, the cell viability count was performed using the trypan blue technique. The viability calculation was performed following the formula nv/(nv + nm), where nv represents the live cells and nm represents the dead cells; the viability value obtained was expressed as a percentage. The IC50 value of each compound was determined using the IC50 Calculator software (https://www.aatbio.com/tools/ic50-calculator).

[4] = test system: Giardia lamblia trophozoites (strain ATCC 30957) gene expression; experiment: Gene expression in trophozoites by RT-qPCR; type: cell-based; conditions: IC50 of each compound, 48 h
Method: To determine the alterations in the parasite’s metabolism and cellular processes induced by the compounds, the expression levels of various genes encoding metabolic, structural, and oxidative stress response proteins were evaluated. G. lamblia strain ATCC 30957 was grown by following previously established culture parameters.
The culture tube was incubated on ice for 15 min and then centrifuged at 2000 rpm for 6 min to concentrate the cell pellet. Cell counting was performed using the trypan blue method. A 500 µL volume of Trizol ® was added, and it was gently homogenized; then, 60 µL of chloroform was added, and it was homogenized for 10 s with a vortex and incubated on ice for 3 min. Afterward, it was centrifuged at 12,000 rpm for 10 min, the aqueous phase was transferred to a new tube, 200 µL of isopropanol was added, and it was incubated for 3 h on ice. The sample was then centrifuged for 10 min at 12,000 rpm, and the supernatant was discarded. A 600 µL volume of ethanol (70%) was added, homogenized, and centrifuged. In the end, the supernatant was removed, and the sample was centrifuged again to dry the excess alcohol. The pellet was dried. Finally, it was resuspended in 25 µL of sterile MilliQ water. The concentration and purity of the extracted RNA were determined using the NanoDrop® Spectrophotometer ND-1000 (NanoDrop Technologies, Wilmington, DE, USA). […] RNA purity and integrity were confirmed using 0.8% (w/v) agarose gels under denaturing conditions.
The synthesis of cDNA was carried out with […] of purified RNA, and 1 U of […] was added (Thermo Thermo Fisher Scientific, Waltham, MA, USA). First-strand cDNA synthesis was carried out using 1 μg of DNase-treated RNA, combined with a 10 mM dNTP mix, oligo(dT)18 primer, and RevertAid reverse transcriptase (Thermo Scientific) in a final reaction volume of 20 μL. The reaction mixture was incubated at 42 °C for 60 min, followed by heat inactivation at 70 °C for 10 min. The synthesized cDNA was stored at −20 °C until further use. The level of purity and concentration of the cDNA were determined using the NanoDrop® Spectrophotometer ND-1000 (NanoDrop Technologies, Wilmington, DE, USA).
Specific oligonucleotides were designed to determine the expression levels of the gene’s phosphofructokinase, pyruvate kinase, glucose-6-phosphate dehydrogenase::6-phosphogluconolactonase, 6-phosphogluconate dehydrogenase, and transketolase. The design was based on gene sequences available in the National Center for Biotechnology Information (NCBI) database, adhering to the following criteria: an oligonucleotide length of 18–20 bp, a melting temperature (Tm) of 61 °C, a GC content of approximately 40%, and an amplicon size between 80 and 200 bp (Table 4). The oligonucleotides were synthesized by the Sequencing and Synthesis Unit of the Institute of Biotechnology, UNAM.
Additionally, previously reported primers that were used for the gene expression analysis of G. lamblia were also obtained (Table 4). These primers target genes encoding surface structural protein, giardin, actin, pyruvate:ferredoxin oxidoreductase, pyruvate phosphate dikinase, NADH oxidase, triose phosphate isomerase, glyceraldehyde-3-phosphate dehydrogenase, and Aldolase.
Amplification was performed using a StepOne™ Real-Time PCR System and the Fast SYBR® Green Master Mix kit (Applied Biosystems, Foster City, CA, USA) under the following conditions: an initial denaturation at 95 °C for 30 s, followed by 40 cycles of 95 °C for 3 s and 60 °C for 30 s. The melt curve analysis was conducted post-amplification by gradually increasing the temperature from 60 °C to 95 °C. […] Normalization was performed using the geometric mean of cycle threshold (Ct) values, and the relative expression levels of the target genes were calculated using the 2^−ΔΔCt method. Each reaction was performed in five replicates for all analyzed genes and strains. Results are presented as mean values ± standard deviation (SD).

[5] = Cytotoxicity, XTT viability assay, HT-29; conditions: human, HT-29 cells, CC50 HT-29, 48 h, XTT
Method: as §1

HT-29 cells = experiment: Cytotoxicity, XTT viability assay, HT-29
Method: as §1

[6] = test system: G. lamblia strain resistant to nitazoxanide; experiment: Giardicidal activity in nitazoxanide-resistant strain (trypan blue count); type: cell-based; conditions: Giardia duodenalis, 48 h, read-out: IC50 G. lamblia (NTZ Resistant)
Method: A pre-culture at confluence was used as a starting point, and a concentration–response curve was plotted using an initial compound concentration of 25 μM in a final volume of 1.5 mL of TYI-S-33 medium, followed by serial dilutions of the compound. Each treatment was inoculated with 1.5 × 10^5 trophozoites and incubated for 48 h at 37 °C. At the end of the incubation, the number of trophozoites was determined using the trypan blue assay and by counting in a Neubauer chamber. The viability percentage at each compound concentration was calculated using the negative control as a reference.

[7] = ratio of IC50 values, ATCC strain

COc1cccc(C(=O)Nc2ncc([N+](=O)[O-])s2)c1 [FLP-6, 3-Methoxy-N-(5-nitro-1,3-thiazol-2-yl)benzamide]
selectivity ratio at 48 h ([1]; Caco-2): 636
CC50 at 48 h ([1]; Caco-2, CC50 Caco-2, 48 h, XTT): 178 µM
CC50 (Caco-2 cells): 178 µM
Inhibition of the G6PD::6PGL enzyme (in words) [2]: not inhibitors of the enzyme
Decrease of cell viability (Caco-2 and HT-29 cells): up to 30%
Decrease of parasite viability ([3]; 25 µM): 100%
Inhibition of growth of G. lamblia parasite culture ([3]; concentration not given): more than 98%
Relative potency compared with MTZ [3, 7]: 12 times
Relative potency compared with NTZ [3, 7]: 15 times
ACT (actin) gene expression, increase vs control [4]: 2.5 times
G6PD::6PGL gene expression vs control [4]: 35 fold change
GIA (giardin) gene expression, increase vs control [4]: 2.6 times
PFK gene expression vs control [4]: 2.3 fold change
TKT gene expression, decrease vs control [4]: 1.2 times
VSP gene expression, increase vs control [4]: 5.9 times
CC50 at 48 h [5]: 115 µM
Selectivity index (CC50/IC50) HT-29 (HT-29 cells; CC50 HT-29 / IC50 trophozoite ATCC strain 30957): 411
CC50 (HT-29 cells; read-out: CC50 HT-29, 48 h, XTT): 115 µM
IC50 [6]: 0.54 µM
